The source of these data is US9163007B2, “5-substituted indazoles as kinase inhibitors” (AbbVie Inc., priority 2007, dated 2015).

Like-named read-outs stand apart in the source and are kept apart here.

One experiment concerns the target Cdc7/Dbf4 (Homo sapiens (Human), UniProt O00311). The experiment can be described thus: Cdc7 Inhibition Assay.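 Also: reaction mixtures incubated 30 min on streptavidin-coated plates, then quantified by scintillation counting, with inhibition curves fitted by non-linear regression.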 The format is biochemical.
Experiment [1] relates to phospho-MCM2 Ser53 in HCT-116 cells. Briefly: Phospho-MCM2 ELISA. It is filed as cell-based. To be noted: Homo sapiens, treated 6 hours. Here is the method: HCT-116 cells (20,000/well; 96-well format) were treated for 6 hours with increasing concentrations of compounds (0.01-10 μM in half-log increments). After removing the medium/inhibitor, the cells were frozen for 5 minutes and treated on ice with 20 μL of lysis buffer (Invitrogen #FNN0011) for 30 minutes. 80 μL of cold 2% BSA (in PBS) were then added to each well before transferring 80 μL to MCM2 antibody-coated plates (Bethyl #A300-122A, lot A300-122A-1). The plates were incubated overnight at 4° C., washed, and then incubated with the sandwich antibody (1:100 rabbit anti-human phospho-MCM2 Ser53; Bethyl #A300-756A, lot A300-756A-2) for 2 hours at room temperature. After another series of washes the samples are incubated for 1 hour with detection antibody (XSA-grade goat anti-rabbit-HRP, KPL #074-15-061, lot 50884, diluted to 2 μg/mL in 2% BSA). Plates were washed, developed using luminescence substrate (SuperSignal Pico for ELISA, Pierce #37069, Lot. HB101408), and read on a Molecular Devices M5 luminometer.
(In general: ELISA stands for enzyme-linked immunosorbent assay.)

The test system of a further experiment is HCT-116 cells. The experiment can be described thus: AlamarBlue Cell Viability Assays. It is filed as cell-based. To be noted: Homo sapiens, treated 72 hours. Here is the method: AlamarBlue Cell Viability Assays
HCT-116 cells (3,000/well; 96-well format) were treated for 72 hours with increasing concentrations of compounds (0.01-30 μM in half-log increments). The cells were then incubated in fresh media with 10% AlamarBlue reagent (Invitrogen #DAL1100). AlamarBlue reactions were incubated according to the manufacturer's instructions (approximately 4 hours) and then analyzed using an fmax fluorescence microplate reader (Molecular Devices) using excitation/emission wavelengths of 544/595 nm. Data were analyzed using SOFTmax PRO software provided by the manufacturer.
(In general: Resazurin is reduced to fluorescent resorufin, in cell work by metabolically active cells.)

[2] abbreviates: 11 data point, read-out: Ki (μM) 11 data point.
Setting [3] is: 6 data point, read-out: Ki (μM) 6 data point.

Chain of Cdc7/Dbf4 (O00311 whole entry): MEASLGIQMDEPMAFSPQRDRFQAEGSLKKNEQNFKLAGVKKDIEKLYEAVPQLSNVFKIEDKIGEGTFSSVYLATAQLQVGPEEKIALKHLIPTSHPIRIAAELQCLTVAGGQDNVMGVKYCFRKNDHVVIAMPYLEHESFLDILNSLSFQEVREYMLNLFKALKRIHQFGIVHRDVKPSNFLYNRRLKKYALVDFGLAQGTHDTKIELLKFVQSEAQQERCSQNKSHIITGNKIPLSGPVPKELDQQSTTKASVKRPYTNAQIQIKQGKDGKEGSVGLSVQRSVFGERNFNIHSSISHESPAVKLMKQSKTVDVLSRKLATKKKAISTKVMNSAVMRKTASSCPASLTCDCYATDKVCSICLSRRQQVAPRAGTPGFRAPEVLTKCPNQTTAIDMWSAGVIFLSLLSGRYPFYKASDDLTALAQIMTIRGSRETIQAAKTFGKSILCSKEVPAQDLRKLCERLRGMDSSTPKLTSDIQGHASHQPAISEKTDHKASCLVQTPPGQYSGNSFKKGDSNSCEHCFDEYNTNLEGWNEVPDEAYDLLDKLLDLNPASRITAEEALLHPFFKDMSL
Chain of Cdc7/Dbf4 (Q9UBU7 whole entry partner): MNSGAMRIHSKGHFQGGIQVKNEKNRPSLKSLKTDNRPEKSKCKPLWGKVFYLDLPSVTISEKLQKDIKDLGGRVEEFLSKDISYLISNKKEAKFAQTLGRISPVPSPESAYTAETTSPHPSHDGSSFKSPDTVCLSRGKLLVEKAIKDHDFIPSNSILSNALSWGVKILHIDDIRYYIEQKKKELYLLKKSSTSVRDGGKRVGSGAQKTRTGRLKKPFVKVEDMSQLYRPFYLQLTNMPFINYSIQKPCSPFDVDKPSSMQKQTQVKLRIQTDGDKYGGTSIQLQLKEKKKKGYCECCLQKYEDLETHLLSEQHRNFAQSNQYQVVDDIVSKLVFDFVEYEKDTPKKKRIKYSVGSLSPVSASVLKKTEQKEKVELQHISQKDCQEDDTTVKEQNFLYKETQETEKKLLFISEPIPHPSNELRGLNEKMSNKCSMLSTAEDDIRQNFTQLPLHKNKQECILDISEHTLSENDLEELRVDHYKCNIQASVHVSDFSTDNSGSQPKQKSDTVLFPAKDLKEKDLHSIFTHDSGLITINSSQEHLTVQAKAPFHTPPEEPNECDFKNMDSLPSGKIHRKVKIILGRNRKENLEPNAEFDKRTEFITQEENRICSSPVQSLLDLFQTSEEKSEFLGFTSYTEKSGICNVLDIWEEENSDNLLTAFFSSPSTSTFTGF
Description for Cdc7/Dbf4: The reactions were incubated for 30 minutes on streptavidin-coated plates, washed, and quantified using a TopCount scintillation plate reader (Packard). IC50 values are determined via non-linear regression fitting of the data.

Turning to `c1ccc(Cn2cc(-c3ccc4[nH]nc(-c5cn(Cc6ccccc6)nn5)c4c3)nn2)cc1` [Example 60, 3,5-bis(1-benzyl-1H-1,2,3-triazol-4-yl)-1H-indazole], the Ki at Cdc7/Dbf4 (setting [2]) turned out to be 0.0556 µM. In addition, the 50% effective concentration (EC50) in experiment [1] was more than 10 µM; in the experiment with HCT-116 cells, 143 nM.

Regarding `c1ccc(Cn2cc(-c3ccc4[nH]nc(-c5ccccc5)c4c3)nn2)cc1` [Example 61, 5-(1-benzyl-1H-1,2,3-triazol-4-yl)-3-phenyl-1H-indazole], at Cdc7/Dbf4 (setting [2]), the inhibitory constant (Ki) was 0.0077 µM. For the same molecule, the EC50 worked out at 8.79 µM in experiment [1] and 3980 nM in the experiment on HCT-116 cells.

On to `COCC(=O)Nc1n[nH]c2ccc(-c3cn(Cc4ccccc4)nn3)cc12` [Example 64, N-[5-(1-benzyl-1H-1,2,3-triazol-4-yl)-1H-indazol-3-yl]-2-methoxyacetamide], for which the Ki on Cdc7/Dbf4 (setting [2]) came out at 0.015 µM. Moreover, the concentration giving a half-maximal response (EC50) in experiment [1] was more than 10 µM; in the experiment with HCT-116 cells, 422 nM.

As for `c1ccc(Cn2nnc(-c3ccc4[nH]ncc4c3)c2-c2ccccc2)cc1` [Example 87, 5-(1-benzyl-5-phenyl-1H-1,2,3-triazol-4-yl)-1H-indazole], the Ki at Cdc7/Dbf4 (setting [2]) stood at 0.000601 µM. Further, the EC50 in experiment [1] is 5.95 µM; in the experiment on HCT-116 cells, 11000 nM.

For `Nc1n[nH]c2ccc(-c3nnn(Cc4ccccc4)c3C3CC3)cc12` [Example 89, 5-(1-benzyl-5-cyclopropyl-1H-1,2,3-triazol-4-yl)-1H-indazol-3-amine], the Ki at Cdc7/Dbf4 (setting [2]) worked out at 0.035 µM. Also, the half-maximal effective concentration (EC50) is more than 10 µM in experiment [1] and 5480 nM in the experiment on HCT-116 cells.

Take `Cc1ccccc1-c1c(-c2ccc3[nH]nc(C)c3c2)nnn1Cc1ccccc1` [Example 162, 5-[1-benzyl-5-(2-methylphenyl)-1H-1,2,3-triazol-4-yl]-3-methyl-1H-indazole]: the Ki on Cdc7/Dbf4 (setting [2]) came out at 0.00225 µM. Further, the EC50 was 5.74 µM in experiment [1] and 1450 nM in the experiment on HCT-116 cells.

In the case of `Fc1ccc(-c2c(-c3ccc4[nH]ncc4c3)nnn2CC2CCOCC2)cc1` [Example 167, 5-[5-(4-fluorophenyl)-1-(tetrahydro-2H-pyran-4-ylmethyl)-1H-1,2,3-triazol-4-yl]-1H-indazole], the Ki on Cdc7/Dbf4 (setting [2]) was 0.00105 µM. For the same molecule, the half-maximal effective concentration (EC50) in experiment [1] amounted to 4.31 µM; with HCT-116 cells, 18200 nM.

On to `CN(C)c1ccc(-c2c(-c3ccc4[nH]nc(N)c4c3)nnn2Cc2ccccc2)cc1` [Example 185, 5-{1-benzyl-5-[4-(dimethylamino)phenyl]-1H-1,2,3-triazol-4-yl}-1H-indazol-3-amine], for which the inhibitory constant (Ki) at Cdc7/Dbf4 (setting [2]) was 0.0004 µM. Further, the results for the EC50 (in experiment [1]; with HCT-116 cells) were 5.47 µM and 22600 nM, respectively.

Take `Cn1cc(-c2c(-c3ccc4[nH]nc(N)c4c3)nnn2Cc2ccccc2)cn1` [Example 189, 5-[1-benzyl-5-(1-methyl-1H-pyrazol-4-yl)-1H-1,2,3-triazol-4-yl]-1H-indazol-3-amine]: the Ki at Cdc7/Dbf4 (setting [2]) came to 0.0019 µM. For the same molecule, the results for the concentration giving a half-maximal response (EC50) (in experiment [1]; with HCT-116 cells) were 5.32 µM and 19200 nM, respectively.

Turning to `Nc1n[nH]c2ccc(-c3nnn(Cc4ccccc4)c3-c3cccc(N4CCOCC4)c3)cc12` [Example 194, 5-[1-benzyl-5-(3-morpholin-4-ylphenyl)-1H-1,2,3-triazol-4-yl]-1H-indazol-3-amine], the Ki at Cdc7/Dbf4 (setting [2]) worked out at 0.068 µM. Besides, the 50% effective concentration (EC50) in experiment [1] was more than 10 µM; in the experiment with HCT-116 cells, 4390 nM.

As for `O=C(Nc1n[nH]c2ccc(-c3nnn(Cc4ccccc4)c3-c3ccccc3)cc12)c1ccccc1` [Example 198, N-[5-(1-benzyl-5-phenyl-1H-1,2,3-triazol-4-yl)-1H-indazol-3-yl]benzamide], the values for the Ki at Cdc7/Dbf4 (setting [3]) and on Cdc7/Dbf4 (setting [2]) were 0.0008 µM and 0.0009 µM, respectively. Besides, the values for the EC50 (in experiment [1]; with HCT-116 cells) were 4.16 µM and 2900 nM, respectively.

On to `O=C(Nc1nn(C(=O)c2ccccc2)c2ccc(-c3nnn(Cc4ccccc4)c3C3CC3)cc12)c1ccccc1` [Example 204, N-[1-benzoyl-5-(1-benzyl-5-cyclopropyl-1H-1,2,3-triazol-4-yl)-1H-indazol-3-yl]benzamide], for which, on Cdc7/Dbf4 (setting [2]), the Ki came to 0.11 µM. The EC50 in experiment [1] turned out to be 6.21 µM; with HCT-116 cells it was 128 nM.

For the molecule `O=C(Nc1n[nH]c2ccc(-c3nnn(Cc4ccccc4)c3C3CC3)cc12)c1cccc(F)c1` [Example 205, N-[5-(1-benzyl-5-cyclopropyl-1H-1,2,3-triazol-4-yl)-1H-indazol-3-yl]-3-fluorobenzamide], the Ki was found to be 0.0009 µM at Cdc7/Dbf4 (setting [3]) and 0.0024 µM on Cdc7/Dbf4 (setting [2]). Moreover, the EC50 was more than 10 µM in experiment [1] and 595 nM with HCT-116 cells.

Consider `Clc1ccccc1CNc1n[nH]c2ccc(-c3nnn(Cc4ccccc4)c3C3CC3)cc12` [Example 222, 5-(1-benzyl-5-cyclopropyl-1H-1,2,3-triazol-4-yl)-N-(2-chlorobenzyl)-1H-indazol-3-amine], for which, at Cdc7/Dbf4 (setting [2]), the Ki was 0.093 µM. The figures for the EC50 (in experiment [1]; in the experiment on HCT-116 cells) were more than 10 µM and 2110 nM, respectively.

With `Clc1ccc(CNc2n[nH]c3ccc(-c4nnn(Cc5ccccc5)c4C4CC4)cc23)cc1` [Example 227, 5-(1-benzyl-5-cyclopropyl-1H-1,2,3-triazol-4-yl)-N-(4-chlorobenzyl)-1H-indazol-3-amine], the inhibition constant (Ki) on Cdc7/Dbf4 (setting [2]) came out at 0.015 µM. The concentration giving a half-maximal response (EC50) is more than 10 µM in experiment [1] and 1400 nM in the experiment on HCT-116 cells.

For `NC(=O)N(Cc1ccccc1)c1n[nH]c2ccc(-c3nnn(Cc4ccccc4)c3C3CC3)cc12` [Example 262, N-benzyl-N-[5-(1-benzyl-5-cyclopropyl-1H-1,2,3-triazol-4-yl)-1H-indazol-3-yl]urea], the inhibitory constant (Ki) at Cdc7/Dbf4 (setting [2]) worked out at 0.041 µM. Besides, the EC50 was more than 10 µM in experiment [1] and 3420 nM in the experiment on HCT-116 cells.

Turning to `NC(=O)N(c1ccccc1Cl)c1n[nH]c2ccc(-c3nnn(Cc4ccccc4)c3C3CC3)cc12` [Example 263, N-[5-(1-benzyl-5-cyclopropyl-1H-1,2,3-triazol-4-yl)-1H-indazol-3-yl]-N-(2-chlorophenyl)urea], the inhibition constant (Ki) at Cdc7/Dbf4 (setting [2]) is 0.022 µM. Further, the figures for the EC50 (in experiment [1]; in the experiment with HCT-116 cells) were more than 10 µM and 1040 nM, respectively.

With `CCCN(C(N)=O)c1n[nH]c2ccc(-c3cn(Cc4ccccc4)nn3)cc12` [Example 319, N-[5-(1-benzyl-1H-1,2,3-triazol-4-yl)-1H-indazol-3-yl]-N-propylurea], the Ki on Cdc7/Dbf4 (setting [2]) turned out to be 0.068 µM. Also, the EC50 in experiment [1] was more than 10 µM; in the experiment on HCT-116 cells it was 1560 nM.

For the molecule `CCNC(=O)Nc1n[nH]c2ccc(-c3cn(Cc4ccccc4)nn3)cc12` [Example 322, N-[5-(1-benzyl-1H-1,2,3-triazol-4-yl)-1H-indazol-3-yl]-N′-ethylurea], at Cdc7/Dbf4 (setting [2]), the inhibitory constant (Ki) was 0.034 µM. The concentration giving a half-maximal response (EC50) was more than 10 µM in experiment [1] and 1530 nM in the experiment with HCT-116 cells.

Regarding `O=C(Nc1n[nH]c2ccc(-c3cn(Cc4ccccc4)nn3)cc12)c1cccc(F)c1` [Example 395, N-[5-(1-benzyl-1H-1,2,3-triazol-4-yl)-1H-indazol-3-yl]-3-fluorobenzamide], the results for the EC50 (in experiment [1]; in the experiment on HCT-116 cells) were 2.99 µM and 315 nM, respectively.

With `c1ccc(Cn2cc(-c3ccc4[nH]nc(-c5cccs5)c4c3)nn2)cc1` [Example 401, 5-(1-benzyl-1H-1,2,3-triazol-4-yl)-3-thien-2-yl-1H-indazole], the Ki at Cdc7/Dbf4 (setting [2]) came to 0.00492 µM. The EC50 in experiment [1] is more than 10 µM; in the experiment with HCT-116 cells, 6720 nM.

Consider `Nc1n[nH]c2ccc(-c3nnn(Cc4ccccc4)c3CC3CCCCC3)cc12` [Example 403, 5-[1-benzyl-5-(cyclohexylmethyl)-1H-1,2,3-triazol-4-yl]-1H-indazol-3-amine], for which, at Cdc7/Dbf4 (setting [2]), the inhibitory constant (Ki) stood at 0.0082 µM. In addition, the concentration giving a half-maximal response (EC50) was more than 10 µM in experiment [1] and 8 nM in the experiment with HCT-116 cells.

On to `Nc1n[nH]c2ccc(-c3nnn(Cc4ccccc4)c3Cc3ccccc3)cc12` [Example 405, 5-(1,5-dibenzyl-1H-1,2,3-triazol-4-yl)-1H-indazol-3-amine], for which the Ki at Cdc7/Dbf4 (setting [2]) came out at 0.0011 µM. The EC50 in experiment [1] was 3.1 µM; in the experiment with HCT-116 cells, 6620 nM.

As for `Nc1n[nH]c2ccc(-c3nnn(Cc4ccccc4)c3-c3cccs3)cc12` [Example 406, 5-(1-benzyl-5-thien-2-yl-1H-1,2,3-triazol-4-yl)-1H-indazol-3-amine], on Cdc7/Dbf4 (setting [2]), the Ki worked out at 0.0005 µM. Besides, the EC50 was found to be 0.671 µM in experiment [1] and 1500 nM in the experiment with HCT-116 cells.

Turning to `Cc1n[nH]c2ccc(-c3nnn(Cc4ccccc4)c3-c3ccc(F)cc3)cc12` [Example 408, 5-[1-benzyl-5-(4-fluorophenyl)-1H-1,2,3-triazol-4-yl]-3-methyl-1H-indazole], the EC50 in experiment [1] was 1.96 µM; in the experiment on HCT-116 cells it was more than 30000 nM.

Regarding `Nc1n[nH]c2ccc(-c3nnn(Cc4ccccc4)c3CC3CCCC3)cc12` [Example 409, 5-[1-benzyl-5-(cyclopentylmethyl)-1H-1,2,3-triazol-4-yl]-1H-indazol-3-amine], the Ki at Cdc7/Dbf4 (setting [2]) stood at 0.02 µM. The half-maximal effective concentration (EC50) in experiment [1] was more than 10 µM; in the experiment on HCT-116 cells, 13500 nM.

In general, Ki refers to the equilibrium dissociation constant of an inhibitor or competing ligand from its target. By EC50 is commonly meant the concentration at which the effect is half-maximal.
